According to patent publication US11623919B2, “Heterocyclic P2X7 antagonists” (AXXAM S.P.A., priority 2017, dated 2023):

Columns and labels:
Test in all cases: Screen Quest Fluo-8 No Wash Calcium Assay (Bz-ATP evoked Ca2+ influx, FLIPR)
Type in all cases: cell-based
[1] = biological target: T1, P2X7 receptor (Mus musculus, UniProt Q9Z1M0); conditions: mP2X7; HEK-293 cells stably transfected with P2X7 receptor, Bz-ATP at EC80, Fluo-8 NW; potency ranges A-D
T1 construct: mP2X7 (IC50; nM); other: mP2X7; HEK-293 cells stably transfected with P2X7 receptor, Bz-ATP at EC80, Fluo-8 NW; potency
T1 sequence (Q9Z1M0 1-595): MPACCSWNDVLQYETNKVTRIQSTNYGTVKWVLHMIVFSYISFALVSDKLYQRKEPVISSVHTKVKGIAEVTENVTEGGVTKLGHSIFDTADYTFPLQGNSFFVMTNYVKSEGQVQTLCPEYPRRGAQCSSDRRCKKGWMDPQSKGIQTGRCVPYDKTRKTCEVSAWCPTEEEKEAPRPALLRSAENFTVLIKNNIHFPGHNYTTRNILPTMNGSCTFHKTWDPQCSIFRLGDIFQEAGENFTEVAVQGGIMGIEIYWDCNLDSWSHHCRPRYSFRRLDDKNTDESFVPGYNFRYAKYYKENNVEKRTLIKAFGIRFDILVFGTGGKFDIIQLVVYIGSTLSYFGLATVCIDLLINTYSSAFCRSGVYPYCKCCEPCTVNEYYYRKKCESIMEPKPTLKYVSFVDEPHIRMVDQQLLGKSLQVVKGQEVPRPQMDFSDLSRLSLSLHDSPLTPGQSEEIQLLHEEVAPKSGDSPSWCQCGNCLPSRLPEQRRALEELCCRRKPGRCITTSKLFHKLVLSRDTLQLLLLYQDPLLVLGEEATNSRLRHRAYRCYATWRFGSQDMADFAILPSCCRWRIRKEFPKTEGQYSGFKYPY
How it was run: (§1)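 HEK-293 cells stably expressing P2X7 were loaded with Fluo-8 NW for 1 h at RT, then given compound, and 5 min later Bz-ATP at EC80. Fluorescence was read by FLIPR in low divalent cation buffer (0.3 mM Ca2+, 0 mM Mg2+). IC50 came from percent inhibition relative to reference antagonist A438079.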

[2] = biological target: T2, P2X7 receptor (Rattus norvegicus, UniProt Q64663); conditions: rP2X7; HEK-293 cells stably transfected with P2X7 receptor, Bz-ATP at EC80, Fluo-8 NW; potency ranges A-D
T2 construct: rP2X7 (IC50; nM); other: rP2X7; HEK-293 cells stably transfected with P2X7 receptor, Bz-ATP at EC80, Fluo-8 NW; potency
T2 sequence (Q64663 1-595): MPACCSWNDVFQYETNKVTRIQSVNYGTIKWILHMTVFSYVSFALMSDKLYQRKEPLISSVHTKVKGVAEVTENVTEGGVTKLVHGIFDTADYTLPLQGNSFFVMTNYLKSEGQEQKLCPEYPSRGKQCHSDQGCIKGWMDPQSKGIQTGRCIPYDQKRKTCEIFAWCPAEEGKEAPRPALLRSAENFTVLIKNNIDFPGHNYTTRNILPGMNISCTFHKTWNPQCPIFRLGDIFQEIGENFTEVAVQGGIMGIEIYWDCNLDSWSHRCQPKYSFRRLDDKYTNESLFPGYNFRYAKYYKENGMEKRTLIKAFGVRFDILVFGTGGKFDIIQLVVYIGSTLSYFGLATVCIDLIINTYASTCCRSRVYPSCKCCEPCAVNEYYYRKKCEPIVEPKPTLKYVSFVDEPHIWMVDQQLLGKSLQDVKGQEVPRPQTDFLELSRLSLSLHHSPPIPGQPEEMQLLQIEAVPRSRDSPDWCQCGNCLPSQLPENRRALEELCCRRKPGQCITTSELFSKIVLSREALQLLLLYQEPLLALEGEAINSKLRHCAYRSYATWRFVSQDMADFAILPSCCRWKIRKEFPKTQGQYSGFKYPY
How it was run: as §1

[3] = biological target: T3, P2X7 receptor (Homo sapiens, UniProt Q99572); set-up: hP2X7 (IC50; nM); other: hP2X7; HEK-293 cells stably transfected with P2X7 receptor, Bz-ATP at EC80, Fluo-8 NW; potency; conditions: hP2X7; HEK-293 cells stably transfected with P2X7 receptor, Bz-ATP at EC80, Fluo-8 NW; potency ranges A-D
T3 sequence (Q99572 1-595): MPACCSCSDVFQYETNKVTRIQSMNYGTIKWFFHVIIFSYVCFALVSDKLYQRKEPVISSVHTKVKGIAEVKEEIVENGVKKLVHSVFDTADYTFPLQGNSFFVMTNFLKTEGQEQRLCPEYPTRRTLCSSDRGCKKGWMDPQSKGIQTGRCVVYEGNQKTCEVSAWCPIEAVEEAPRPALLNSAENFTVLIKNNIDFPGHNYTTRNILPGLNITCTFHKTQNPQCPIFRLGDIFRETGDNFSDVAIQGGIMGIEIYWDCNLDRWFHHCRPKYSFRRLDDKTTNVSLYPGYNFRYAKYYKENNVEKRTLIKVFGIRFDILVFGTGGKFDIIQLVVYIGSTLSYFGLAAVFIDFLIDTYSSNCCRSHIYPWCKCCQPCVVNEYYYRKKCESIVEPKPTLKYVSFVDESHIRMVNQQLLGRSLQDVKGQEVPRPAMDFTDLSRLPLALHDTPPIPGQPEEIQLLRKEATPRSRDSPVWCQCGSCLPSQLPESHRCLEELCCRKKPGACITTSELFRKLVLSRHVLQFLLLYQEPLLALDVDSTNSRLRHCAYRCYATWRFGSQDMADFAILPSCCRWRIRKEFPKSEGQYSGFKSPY
How it was run: as §1

| SMILES | IC50 [1] [nM] | IC50 [2] [nM] | IC50 [3] [nM] |
| --- | --- | --- | --- |
| O=c1onc(Cc2ccc(F)cc2)n1Cc1cccc(Cl)c1Cl [Example 50, 4-[(2,3-dichlorophenyl)methyl]-3-[(4-fluorophenyl)methyl]-4,5-dihydro-1,2,4-oxadiazol-5-one] | > 10000 | > 10000 | > 10000 |
| COc1ccc(Cn2c(Cc3ccc(F)cc3)noc2=O)cc1 [Example 3, 3-[(4-fluorophenyl)methyl]-4-[(4-methoxyphenyl)methyl]-4,5-dihydro-1,2,4-oxadiazol-5-one] | > 10000 | > 10000 | > 10000 |
| O=c1onc(Cc2c(F)cccc2Cl)n1CC1CCC(F)CC1 (stereo not drawn) [Example 185, 3-[(2-chloro-6-fluorophenyl)methyl]-4-[(4-fluorocyclohexyl)methyl]-4,5-dihydro-1,2,4-oxadiazol-5-one] | < 200 | < 200 | < 200 |
| O=c1onc(Cc2c(F)cccc2Cl)n1CC1CCC(F)(F)C1 (single isomer, unassigned) [Example 148, 3-(2-chloro-6-fluorobenzyl)-4-[(3,3-difluorocyclopentyl)methyl]-1,2,4-oxadiazol-5(4H)-one] | 200 to 1000 | < 200 | < 200 |
| O=c1onc(Cc2ccc(Cl)cc2Cl)n1Cc1c(F)cccc1Cl [Example 17, 4-[(2-chloro-6-fluorophenyl)methyl]-3-[(2,4-dichlorophenyl)methyl]-4,5-dihydro-1,2,4-oxadiazol-5-one] | 1000 to 10000 | 1000 to 10000 | 1000 to 10000 |
| O=c1onc(Cc2c(F)cccc2Cl)n1Cc1ccccc1F [Example 56, 3-[(2-chloro-6-fluorophenyl)methyl]-4-[(2-fluorophenyl)methyl]-4,5-dihydro-1,2,4-oxadiazol-5-one] | 1000 to 10000 | 1000 to 10000 | 1000 to 10000 |
| Cc1ncccc1Cc1noc(=O)n1Cc1c(F)cccc1Cl [Example 217, 4-[(2-chloro-6-fluorophenyl)methyl]-3-[(2-methylpyridin-3-yl)methyl]-4,5-dihydro-1,2,4-oxadiazol-5-one] | > 10000 | > 10000 | > 10000 |
| Cc1nn(C)c(C)c1Cc1noc(=O)n1Cc1c(F)cccc1Cl [Example 213, 4-[(2-chloro-6-fluorophenyl)methyl]-3-[(trimethyl-1H-pyrazol-4-yl)methyl]-4,5-dihydro-1,2,4-oxadiazol-5-one] | > 10000 | > 10000 | 1000 to 10000 |
| O=c1onc(CN2CCCC(F)(F)C2)n1Cc1ccc(F)cc1 [Example 225, 3-[(3,3-difluoropiperidin-1-yl)methyl]-4-[(4-fluorophenyl)methyl]-4,5-dihydro-1,2,4-oxadiazol-5-one] | > 10000 | 1000 to 10000 | > 10000 |
| O=c1onc(Cc2cccc(F)c2)n1Cc1ccc(F)cc1 [Example 107, 3-[(3-fluorophenyl)methyl]-4-[(4-fluorophenyl)methyl]-4,5-dihydro-1,2,4-oxadiazol-5-one] | 1000 to 10000 | 1000 to 10000 | 1000 to 10000 |
| CC(C)(c1c(F)cccc1Cl)c1noc(=O)n1CC1CCCCC1 [Example 121, 3-[2-(2-chloro-6-fluorophenyl)propan-2-yl]-4-(cyclohexylmethyl)-4,5-dihydro-1,2,4-oxadiazol-5-one] | > 10000 | > 10000 | > 10000 |
| Cc1noc(C)c1Cn1c(Cc2c(F)cccc2Cl)noc1=O [Example 36, 3-[(2-chloro-6-fluorophenyl)methyl]-4-[(dimethyl-1,2-oxazol-4-yl)methyl]-4,5-dihydro-1,2,4-oxadiazol-5-one] | > 10000 | > 10000 | 1000 to 10000 |
| CC1CC(F)(F)CCN1Cc1noc(=O)n1Cc1ccc(F)cc1 (stereo not drawn) [Example 227, 3-[(4,4-difluoro-2-methylpiperidin-1-yl)methyl]-4-[(4-fluorophenyl)methyl]-4,5-dihydro-1,2,4-oxadiazol-5-one] | 1000 to 10000 | 200 to 1000 | 1000 to 10000 |
| O=c1onc(Cc2ccccc2C(F)(F)F)n1Cc1ccc(F)cc1 [Example 105, 4-[(4-fluorophenyl)methyl]-3-{[2-(trifluoromethyl)phenyl]methyl}-4,5-dihydro-1,2,4-oxadiazol-5-one] | 1000 to 10000 | 1000 to 10000 | 1000 to 10000 |
| O=c1onc(Cc2c(F)cccc2Cl)n1CC1CCC1 [Example 69, 3-[(2-chloro-6-fluorophenyl)methyl]-4-(cyclobutylmethyl)-4,5-dihydro-1,2,4-oxadiazol-5-one] | 1000 to 10000 | 200 to 1000 | 1000 to 10000 |
| O=c1onc(CN2CCOc3ccccc32)n1CC1CCC(F)(F)CC1 [Example 231, 4-[(4,4-difluorocyclohexyl)methyl]-3-(3,4-dihydro-2H-1,4-benzoxazin-4-ylmethyl)-4,5-dihydro-1,2,4-oxadiazol-5-one] | < 200 | < 200 | < 200 |
| O=c1onc(CC2CCC(F)(F)CC2)n1Cn1ccc(C(F)(F)F)n1 [Example 198, 3-[(4,4-difluorocyclohexyl)methyl]-4-{[3-(trifluoromethyl)-1H-pyrazol-1-yl]methyl}-1,2,4-oxadiazol-5(4H)-one] | 1000 to 10000 | 1000 to 10000 | > 10000 |
| O=c1onc(Cc2ccncc2)n1CC1CCCCC1 [Example 111, 4-(cyclohexylmethyl)-3-(pyridin-4-ylmethyl)-4,5-dihydro-1,2,4-oxadiazol-5-one] | 200 to 1000 | 1000 to 10000 | > 10000 |
| COc1ccc(Cn2c(Cc3c(F)cccc3Cl)noc2=O)cc1 [Example 68, 3-[(2-chloro-6-fluorophenyl)methyl]-4-[(4-methoxyphenyl)methyl]-4,5-dihydro-1,2,4-oxadiazol-5-one] | > 10000 | > 10000 | 1000 to 10000 |
| O=c1onc(Cc2ccccc2Cl)n1Cc1c(F)cccc1Cl [Example 20, 4-[(2-chloro-6-fluorophenyl)methyl]-3-[(2-chlorophenyl)methyl]-4,5-dihydro-1,2,4-oxadiazol-5-one] | 1000 to 10000 | 1000 to 10000 | 1000 to 10000 |
| O=c1onc(Cc2c(F)cccc2Cl)n1Cc1ccc(C(F)(F)F)cc1 [Example 63, 3-[(2-chloro-6-fluorophenyl)methyl]-4-{[4-(trifluoromethyl)phenyl]methyl}-4,5-dihydro-1,2,4-oxadiazol-5-one] | 1000 to 10000 | 1000 to 10000 | 1000 to 10000 |
